Results: PubChem BioAssay (NCI)
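Following 48 hours of exposure in 96-well plates, responses at five concentrations were used to interpolate endpoints linearly. GI50 is the concentration that inhibits growth by half. TGI denotes the concentration required for complete inhibition of growth.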

Tests used:
Assay in all cases: growth of human tumour cells (NCI), 48 h
[1] = system: HCT-15 colon
[2] = system: DU-145 prostate
[3] = system: NCI-H23 lung
[4] = system: MALME-3M melanoma
[5] = system: NCI-H460 lung
[6] = system: MDA-MB-231 breast
[7] = system: SNB-75 CNS
[8] = system: TK-10 renal
[9] = system: HS 578T breast
[10] = system: RPMI-8226 leukemia

SMILES | TGI [1] | TGI [2] | TGI [3] | TGI [4] | TGI [5] | TGI [6] | TGI [7] | TGI [8] | TGI [9] | GI50 [10] | TGI [10] | GI50 [1] | GI50 [2] | GI50 [3] | GI50 [4] | GI50 [5] | GI50 [6] | GI50 [7] | GI50 [8] | GI50 [9]
COc1ccc(/C=C/[N+](=O)[O-])cc1 | 15.2 µM | 20.3 µM | 59.9 µM | 35.3 µM | 55.3 µM | 55.3 µM | > 100 µM | 27 µM | 36.6 µM | – | – | – | – | – | – | – | – | – | – | –
CCCCCCCCCCCCCCCCOCCCOP(=O)(O)C1CCCN(O)C1=O (stereo not drawn) | 12.1 µM | > 100 µM | 20.5 µM | 10.8 µM | 4.51 µM | 16.8 µM | 15 µM | 23.4 µM | 66.7 µM | 0.936 µM | 29.4 µM | 0.472 µM | 2.53 µM | 4.19 µM | 2.64 µM | 0.375 µM | 2.3 µM | 2.13 µM | 0.738 µM | 14.1 µM
Nc1nncs1 | 4920 µM | > 5000 µM | > 4730 µM | > 5000 µM | 3750 µM | > 5000 µM | > 3710 µM | > 5000 µM | > 5000 µM | – | > 5000 µM | – | – | – | – | – | – | – | – | –
O=C(O)CNCc1c2ccccc2[n+]([O-])c2ccccc12 | > 100 µM | – | > 100 µM | > 100 µM | > 100 µM | – | > 100 µM | > 100 µM | – | – | > 100 µM | – | – | – | – | – | – | – | – | –
CSc1sc(=S)sc1SC | > 100 µM | – | > 100 µM | > 100 µM | > 100 µM | – | > 90 µM | – | – | – | > 100 µM | – | – | – | – | – | – | – | – | –
COC1/C=C\OC2(C)Oc3c(C)c(O)c4c(O)c(c(CN(C)C)c(O)c4c3C2=O)NC(=O)/C(C)=C\C=C/C(C)C(O)C(C)C(O)C(C)C(OC(C)=O)C1C (stereo not drawn) | > 100 µM | > 100 µM | 31.3 µM | 39.3 µM | > 100 µM | 92.8 µM | > 100 µM | > 100 µM | > 100 µM | – | 40 µM | – | – | – | – | – | – | – | – | –
C[C@H](CCC1=NCCN1)[C@H]1CC[C@H]2[C@@H]3CC[C@@H]4C[C@H](O)CC[C@]4(C)[C@H]3CC[C@]12C | > 50.2 µM | 35.8 µM | 35 µM | 7.76 µM | > 33.9 µM | > 41 µM | 22 µM | 23.2 µM | 48.2 µM | – | 13.4 µM | – | – | – | – | – | – | – | – | –
COC(=O)c1nc2c3c(cccc3c1C(=O)OC)Nc1ccccc1-2 | – | > 100 µM | > 100 µM | 93 µM | 77.9 µM | > 100 µM | > 100 µM | > 100 µM | > 100 µM | – | > 100 µM | – | – | – | – | – | – | – | – | –
NC(=O)c1cc(C2OC(CO)C(O)C2O)nn1-c1ccc([N+](=O)[O-])cc1 (stereo not drawn) | > 100 µM | – | > 100 µM | > 100 µM | > 100 µM | – | > 100 µM | > 100 µM | – | – | > 100 µM | – | – | – | – | – | – | – | – | –
O=C(O)C(Br)Cc1ccc2c(c1)OCO2 (stereo not drawn) | > 100 µM | – | > 100 µM | > 100 µM | > 100 µM | – | > 100 µM | – | – | – | > 100 µM | – | – | – | – | – | – | – | – | –
C#C[C@@]1(O)[C@@H](CO)O[C@@H](n2cc(F)c3c(N)ncnc32)[C@@H]1O | 3.19 µM | 13.4 µM | 6.85 µM | 1.81 µM | 10.2 µM | 2.98 µM | 2.32 µM | 6.56 µM | > 100 µM | 0.221 µM | 1.98 µM | 0.297 µM | 0.354 µM | 0.398 µM | 0.362 µM | 0.231 µM | 0.379 µM | 1.03 µM | 0.736 µM | 3.97 µM
COc1cc2c3c(c4cc(OC)c(OC)cc4c2cc1OC)[C@H](O)[C@@H]1CCCN1C3 | 5.45 µM | 1.45 µM | 1.93 µM | 6.69 µM | 0.72 µM | 0.562 µM | 0.252 µM | 1.55 µM | – | – | 0.44 µM | – | – | – | – | – | – | – | – | –
